Consider 20 molecules from ChEMBL document CHEMBL1129993, “Synthesis and biological characterization of 1,4,5,6-tetrahydropyrimidine and 2-amino-3,4,5,6-tetrahydropyridine derivatives as selective m1 agonists” (J Med Chem, 1997).

The target of experiment [1] is T1, Muscarinic acetylcholine receptor M1 (Mus musculus, UniProt P12657).
T1 sequence (P12657 whole entry): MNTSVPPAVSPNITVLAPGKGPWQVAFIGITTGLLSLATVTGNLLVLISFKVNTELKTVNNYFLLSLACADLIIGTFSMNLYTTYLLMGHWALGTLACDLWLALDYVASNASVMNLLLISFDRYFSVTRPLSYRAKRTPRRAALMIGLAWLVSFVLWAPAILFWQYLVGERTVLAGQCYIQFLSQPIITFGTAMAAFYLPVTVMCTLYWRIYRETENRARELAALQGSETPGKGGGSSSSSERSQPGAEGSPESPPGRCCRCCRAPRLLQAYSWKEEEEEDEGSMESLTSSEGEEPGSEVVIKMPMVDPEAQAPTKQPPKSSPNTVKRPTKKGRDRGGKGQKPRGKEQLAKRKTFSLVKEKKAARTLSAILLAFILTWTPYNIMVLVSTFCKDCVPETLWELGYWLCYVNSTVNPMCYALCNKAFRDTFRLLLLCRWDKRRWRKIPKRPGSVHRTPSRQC
The experiment is described as follows: biochemical.

Experiment [2] deals with T1, Muscarinic acetylcholine receptor M1. Nature of the experiment: biochemical. The source holds these as a separate data set.
Experiment [3] shares this target.
Description: Tested against Muscarinic acetylcholine receptor M1 expressed in A9 L cell line
The species entered for a further experiment is Rattus norvegicus. Nature of the experiment: Tested for agonist activity through assays of phosphoinositide (PI) metabolism in slices from rat cerebral cortex at 100 uM. Type of experiment: functional.
A further experiment deals with A9. The experiment is described as follows: cells. The following applies: Mus musculus, A9L.
The target in experiment [4] is Muscarinic acetylcholine receptor M3 (Mus musculus, UniProt Q9ERZ3).
Description: Tested against Muscarinic acetylcholine receptor M3 expressed in A9 L cell line
Experiment [5] has as its target T1, Muscarinic acetylcholine receptor M1. Nature of the experiment: biochemical. The source holds these as a separate data set.

Usually Ki stands for a dissociation constant, usually derived from enzyme kinetics or from competition with a known ligand. A word on the EC50: it is the midpoint of the concentration-response curve. Higher therefore signals a less potent agent. In general, IC50 refers to the concentration needed to halve the response being measured.

Structures are written as SMILES.

Sequence of Muscarinic acetylcholine receptor M3 (Q9ERZ3 whole entry): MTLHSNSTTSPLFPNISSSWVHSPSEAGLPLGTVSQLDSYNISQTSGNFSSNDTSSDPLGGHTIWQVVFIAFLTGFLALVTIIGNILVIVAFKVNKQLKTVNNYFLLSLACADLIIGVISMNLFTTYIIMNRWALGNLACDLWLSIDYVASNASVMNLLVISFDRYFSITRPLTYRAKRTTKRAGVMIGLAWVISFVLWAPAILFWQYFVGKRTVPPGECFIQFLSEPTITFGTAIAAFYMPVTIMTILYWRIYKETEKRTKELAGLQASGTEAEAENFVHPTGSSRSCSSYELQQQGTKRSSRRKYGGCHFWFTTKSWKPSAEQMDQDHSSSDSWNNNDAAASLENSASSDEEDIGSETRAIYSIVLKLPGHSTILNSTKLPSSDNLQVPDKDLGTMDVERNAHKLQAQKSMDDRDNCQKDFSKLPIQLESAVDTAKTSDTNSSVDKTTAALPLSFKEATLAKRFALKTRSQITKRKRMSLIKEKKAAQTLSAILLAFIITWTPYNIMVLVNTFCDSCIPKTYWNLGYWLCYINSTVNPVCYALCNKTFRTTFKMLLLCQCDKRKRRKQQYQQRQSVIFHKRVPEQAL
Description for A9: Inhibition of Forskolin-Induced cAMP production in A9 L cells expressing m2 receptors

In the case of `C#CCCOC(=O)C1CN=CNC1` (configuration not stated), the values for the Ki in experiment [1] and in experiment [2] were 15.5 nM and 30.9 nM, respectively. In experiment [3], this molecule displayed an EC50 of 560 µM.

As for `C[N+](C)(C)CCOC(N)=O.[Cl-]` [CARBACHOL], in the experiment listed under Rattus norvegicus, the Activity turned out to be 470%. The molecule also had an IC50 in the experiment on A9 of 100 nM. In experiment [4], this molecule returned an EC50 of 9.9 µM.

Regarding `CC#CCOC(=O)C1CN=CNC1` (configuration not stated), the values for the Ki in experiment [1] and in experiment [2] were 9.01 nM and 14 nM, respectively. This molecule showed an EC50 in experiment [3] of 50 µM.

`CCc1noc(C2CN=CNC2)n1` (configuration not stated): the EC50 in experiment [4] is 10 µM; in experiment [3], 12 µM.

On to `CCOC(=O)C1CN=CNC1` (configuration not stated), for which the EC50 in experiment [4] came to 17 µM; in experiment [3], 44 µM.

Take `COC(=O)C1CCC(N)=NC1` (configuration not stated): the EC50 was determined as 14 µM in experiment [4] and 41 µM in experiment [3].

As for `C#C/C(C)=C/COC(=O)C1CN=CNC1` (configuration not stated), in experiment [3], the EC50 came out at 80 µM.

Consider `COC(=O)C1CN=C(N)NC1` (configuration not stated), for which the EC50 in experiment [3] was 160 µM.

The molecule `C#CCOC(=O)C1CN=C(N)NC1` (configuration not stated) came in with an EC50 in experiment [3] of 300 µM.

For `C[N+](C)(C)CC#CCN1CCCC1=O` [OXOTREMORINE METHIODIDE], the EC50 in experiment [3] is 0.7 µM.

Take `CCCC#Cc1noc(C2CN=CNC2)n1` (configuration not stated): the Ki was determined as 17.4 nM in experiment [1] and 138 nM in experiment [2].

In turn, `COCc1noc(C2CN=CNC2)n1` (configuration not stated) displayed an EC50 in experiment [4] of 11 µM.

In the experiment on A9, `CCCCCCOc1nsnc1C1=CCCN(C)C1` [XANOMELINE] showed an IC50 of 7000 nM. The EC50 in experiment [4] amounted to 11 µM.

For the molecule `C#CCOC(=O)C1CCC(N)=NC1` (configuration not stated), the IC50 in the experiment with A9 was 440 nM. For the same molecule, the EC50 is 12 µM in experiment [4] and 116 µM in experiment [3].

Turning to `CSCc1noc(C2CN=CNC2)n1` (configuration not stated), the values for the EC50 in experiment [4] and in experiment [3] were 5.8 µM and 14 µM, respectively.

In the case of `O=C1CCCN1CC#CCN1CCCC1` [OXOTREMORINE], in experiment [3], the EC50 turned out to be 0.27 µM.

With `Cc1noc(C2=CCCN(C)C2)n1`, the Ki was 1.05 nM in experiment [5] and 0.589 nM in experiment [1]. Besides, the IC50 in the experiment on A9 stood at 1200 nM. Moreover, the EC50 turned out to be 2.8 µM in experiment [4] and 12 µM in experiment [3].

Regarding `Cc1noc(C2CN=CNC2)n1` (configuration not stated), the Ki was determined as 2.5 nM in experiment [5], 2.31 nM in experiment [1] and 21.1 nM in experiment [2]. In addition, in the experiment with A9, the IC50 was determined as 110 nM. In addition, the values for the EC50 in experiment [4] and in experiment [3] were 1.1 µM and 5.4 µM, respectively.

As to `C#CCOC(=O)C1CN=CNC1` (configuration not stated), 780 nM corresponded to half-maximal inhibition with A9 (IC50). Moreover, the Ki in experiment [1] is 2.88 nM; in experiment [2], 41.7 nM. The results for the EC50 in experiment [4] and in experiment [3] were 18 µM and 33 µM, respectively.

On to `COC(=O)C1CN=CNC1` (configuration not stated), for which the Ki in experiment [5] worked out at 26.8 nM; in experiment [1], 23.6 nM; in experiment [2] it was 359 nM. In the experiment on A9, this molecule came in with an IC50 of 1600 nM. For the same molecule, the EC50 in experiment [4] was found to be 50 µM; in experiment [3], 200 µM.
